Read-outs that look alike come from different tables or passages of the source.
How the values were obtained:
[1] = test system: K1 culture-adapted P. falciparum strain; set-up: method as in PMID 25791675; details: K1 strain of P. falciparum; reference values; read-out: EC50 PfK1; cited from earlier work
[2] = test system: HepG2 cell line; details: cited from earlier work
[3] = test system: K1 culture-adapted P. falciparum strain; test: Antiplasmodial evaluation, SYBR Green I fluorescence-based drug susceptibility test; type: cell-based; details: Plasmodium falciparum; multi-resistant K1 strain of P. falciparum, 72 h incubation, three independent experiments; read-out: EC50 PfK1
Procedure: […]. Parasitemia was maintained daily between 1 and 3%. The P. falciparum drug susceptibility test was carried out by comparing quantities of DNA in treated and control cultures of parasite in human erythrocytes according to a SYBR Green I fluorescence-based method[19] using a 96-well fluorescence plate reader. Compounds previously dissolved in DMSO (final concentration less than 0.5% v/v) were incubated in a total assay volume of 200 μL (RPMI, 2% hematocrit and 0.4% parasitemia) for 72 h in a humidified atmosphere (10% O2 and 5% CO2) at 37 °C in 96-well flat bottom plates. Duplicate assays were performed for each sample. After incubation, plates were frozen at […] for 24 h. Then, the frozen plates were thawed for 1 h at 37 °C. Fifteen μL of each sample were transferred to 96-well flat bottom non-sterile black plates (Greiner Bio-one, Kremsmünster, Austria), already containing 15 μL of the SYBR Green I lysis buffer (2X SYBR Green I, 20 mM Tris base pH 7.5, 20 mM EDTA, 0.008% w/v saponin, 0.08% w/v Triton X-100). […] Plates were incubated for 15 min at 37 °C and then read on a TECAN Infinite F-200 spectrophotometer with excitation and emission wavelengths at 485 and 535 nm, respectively.

[4] = Cytotoxic evaluation, MTT assay; type: cell-based; details: HepG2 cells, human HepG2 cell line, three independent experiments
Procedure: The HepG2 cell line was maintained at 37 °C, 5% CO2, at 90% humidity in […] supplemented with 10% fetal bovine serum, 1% L-glutamine (200 mM), and penicillin (100 U per mL)/streptomycin (100 μg mL^−1) (complete RPMI medium). The cytotoxicity of the tested molecules on the HepG2 (hepatocarcinoma cell line purchased from ATCC, ref HB-8065) cell line was assessed according to the method of Mosmann[20] with slight modifications. Briefly, 5 × 10^3 cells in 100 μL of complete medium were inoculated into each well of 96-well plates and incubated at 37 °C in humidified 5% CO2. After 24 h incubation, 100 μL of medium with various product concentrations dissolved in DMSO (final concentration less than 0.5% v/v) were added and the plates were incubated for 72 h at 37 °C. Triplicate assays were performed for each sample. Each plate was then microscopically examined for possible precipitate formation before the medium was aspirated from the wells. Next, 100 μL of MTT (3-(4,5-dimethyl-2-thiazolyl)-2,5-diphenyl-2H-tetrazolium bromide) solution (0.5 mg mL^−1 in medium without FBS) was added to each well. Cells were incubated for 2 h at 37 °C. After this time, the MTT solution was removed and DMSO (100 μL) was added to dissolve the resulting blue formazan crystals. Plates were shaken vigorously (700 rpm) for 10 min. The absorbance was measured at 570 nm with 630 nm as a reference wavelength using a BIO-TEK ELx808 Absorbance Microplate Reader (LabX, Midland, ON, Canada). DMSO was used as a blank and doxorubicin (purchased from Sigma Aldrich) as a positive control. Cell viability was calculated as a percentage of control (cells incubated without the compound). […] CC50 values to represent the mean value calculated from three independent experiments.

[5] = Microsomal stability; type: in vitro ADME, mouse; details: for half-life: CD-1, read-out: t1/2 (half-time, microsomal stability); for half-life / Clint (intrinsic clearance): in vitro, female mouse microsomes, 37 °C, pH 7.4
Procedure: The tested product and propranolol, used as a reference, were incubated in duplicate (reaction mixture volume of 0.5 mL) with female mouse microsomes (CD-1, 20 mg mL; BD Gentest) at 37 °C in a 50 mM phosphate buffer, pH 7.4, in the presence of MgCl2 (5 mM), NADP (1 mM), glucose-6-phosphate dehydrogenase (G6PD) (0.4 U per mL), and glucose-6-phosphate (5 mM). For the estimation of the intrinsic clearance, 50 μL aliquots were collected at 0, 5, 10, 20, 30, and 40 min and the reaction was stopped with 4 volumes of acetonitrile (ACN) containing the internal standard. After centrifugation at 10 000×g for 10 min at 4 °C, the supernatants were conserved at 4 °C for immediate analysis or placed at −80 °C in case of postponement of the analysis. Controls (time zero and final time point) in triplicate were prepared by the incubation of the internal standard with microsomes denatured by acetonitrile. The LC-MS system used for this study was a Waters Acquity I-Class/Xevo TQD equipped with a Waters Acquity BEH C18 column, 50 by 2.1 mm, 1.7 μm. The mobile phases were 10 mM ammonium acetate (mobile phase A) and acetonitrile with 0.1% formic acid (mobile phase B). The injection volume was 1 μL, and the flow rate was 600 μL min^−1. Chromatographic analysis, with a total duration of 4 min, was made with the following gradient: 0 < t < 0.2 min, 2% mobile phase B; 0.2 < t < 2 min, linear increase to 98% mobile phase B; 2 < t < 2.5 min, 98% mobile phase B; 2.5 < t < 2.6 min, linear decrease to 2% mobile phase B; 2.6 < t < 4 min, 2% mobile phase B. The quantification of each compound was obtained by converting the average of the ratios of the analyte/internal standard surfaces to the percentage of consumed product. The ratio of the control at t0 corresponded to 0% of the product consumed. The calculation of the half-life (t1/2) of each compound in the presence of microsomes was carried out according to the equation t1/2 = (ln2)/k, where k is the first-order degradation constant (the slope of the logarithm of the compound concentration versus incubation time). The intrinsic clearance in vitro (Clint, expressed in mlmin^−1mg) was calculated according to the equation Clint = (dose/AUC∞)/[microsomes], where dose is the initial concentration of the product in the sample, AUC∞ is the area under the concentration–time curve extrapolated to infinity, and [microsomes] is the microsome concentration expressed in mg μL^−1.

[6] = read-out: CC50 HepG2, human HepG2 cell line, reference values

Row | Structure (SMILES) | EC50 [1] [nM] | CC50 [2, 6] [µM] | also measured
1 | O=C1C(O)=C([C@H]2CC[C@H](c3ccc(Cl)cc3)CC2)C(=O)c2ccccc21 [Atovaquone, atovaquone] | 1.3 | > 15.6 | –
2 | CCN(CC)CCCC(C)Nc1ccnc2cc(Cl)ccc12 (centres unmarked) [Chloroquine, chloroquine] | 500 | – | –
3 | CC(C)(C)Nc1nc2cc(N3CCCCC3)sc2c(=O)[nH]1 [Compound 1g, 2-tert-Butylamino-6-(piperidin-1-yl)thieno[3,2-d]pyrimidin-4(3H)-one] | – | – | EC50 [3]: 770 ± 130 nM; CC50 at 72 h [4]: 33.9 ± 1.4 µM; half-life [5]: 40 min; Clint (intrinsic clearance) [5]: 42 μLmin^−1mg; improvement in the half-time versus M1 ([5]; mouse microsomes, piperidine moiety (1g) vs tolyl moiety (M1)): more than 3 fold
4 | Cc1ccc(-c2cc3nc(NC(C)(C)C)[nH]c(=O)c3s2)cc1 [Compound M1, gamhepathiopine, reference compound] | 45 | 24 | half-life [5]: 11 min; Clint (intrinsic clearance) [5]: 240 μLmin^−1mg
5 | COc1cccc2c1C(=O)c1c(O)c3c(c(O)c1C2=O)C[C@@](O)(C(=O)CO)C[C@@H]3O[C@H]1C[C@H](N)[C@H](O)[C@H](C)O1 [Doxorubicine, doxorubicine] | – | – | CC50 [2]: 0.2 µM
6 | C[C@H]1c2cccc(O)c2C(=O)C2=C(O)[C@]3(O)C(=O)C(C(N)=O)=C(O)[C@@H](N(C)C)[C@@H]3[C@@H](O)[C@@H]21 [Doxycycline, doxycycline] | 5000 | 20 | –
7 | Cc1ccc(-c2cc3nc(NC(C)(C)C)[nH]c(=O)c3s2)cc1 [M1 (free base), gamhepathiopine] | 200 | 25.6 | –

Reference: publication PMC9264115, “Pd-catalyzed C–C and C–N cross-coupling reactions in 2-aminothieno[3,2-d]pyrimidin-4(3H)-one series for antiplasmodial pharmacomodulation” (RSC Advances, 2022)
